Where a name gives a salt, the structure may show the parent alone. Read-outs that look alike come from different tables or passages of the source.
How the values were obtained:
GST-ALK5 = target: T1, GST-ALK5 (Homo sapiens, UniProt P36897); experiment: In-vitro (enzyme) kinase assay, 384-well flashplate (Example 36); type: biochemical; settings: read-out: TβR activity (Example 36)
T1 sequence (P36897 34-503): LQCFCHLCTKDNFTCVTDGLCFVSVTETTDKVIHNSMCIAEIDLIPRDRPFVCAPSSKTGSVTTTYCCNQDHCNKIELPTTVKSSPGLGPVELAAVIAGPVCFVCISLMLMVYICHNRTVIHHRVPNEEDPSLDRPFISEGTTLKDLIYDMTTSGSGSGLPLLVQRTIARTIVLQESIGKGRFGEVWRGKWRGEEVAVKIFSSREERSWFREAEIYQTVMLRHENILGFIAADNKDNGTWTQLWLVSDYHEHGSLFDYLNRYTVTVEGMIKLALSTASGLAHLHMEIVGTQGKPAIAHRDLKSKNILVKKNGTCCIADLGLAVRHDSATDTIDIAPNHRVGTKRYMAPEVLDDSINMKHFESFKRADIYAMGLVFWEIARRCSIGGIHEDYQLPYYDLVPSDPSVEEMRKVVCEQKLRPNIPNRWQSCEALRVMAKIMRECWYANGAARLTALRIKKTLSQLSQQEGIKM
Protocol: In-vitro (Enzyme) Assay for Determination of the Efficacy of Inhibitors of the Inhibition of TGF-beta-Mediated Effects
The kinase assay was carried out as 384-well flashplate assay. 31.2 nM of GST-ALK5, 439 nM of GST-SMAD2 and 3 mM of ATP (with 0.3 μCi of ^33P-ATP/well) were incubated in a total volume of 35 μl (20 mM of HEPES, 10 mM of MgCl2, 5 mM of MnCl2, 1 mM of DTT, 0.1 of BSA, pH 7.4) without or with test substance (5-10 concentrations) at 30° C. for 45 min. The reaction was stopped using 25 μl of 200 mM EDTA solution, filtered with suction at room temperature after 30 min, and the wells were washed with 3 times 100 μl of 0.9% NaCl solution. Radioactivity was measured in the TopCount. The IC50 values were calculated using RS1.

[1] = system: TGF-beta-induced phosphorylation of Smad2 and Smad3 in Mv1-Lu cells; experiment: Inhibition of Smad2/3 phosphorylation in Mv1Lu cells (Example 35A); type: cell-based, mink Mustela vison; settings: Neogale vison, read-out: TβR activity (Example 35A)
Protocol: Inhibition of Smad2/3 Phosphorylation in Mv1Lu Cells by TGF-bta Receptor I Kinase Inhibitors
This assay was used to determine the inhibitory potency of compounds on TGF-beta-induced phosphorylation of Smad2 (Ser465/467) and Smad3 (Ser423/425). Mv1-Lu cells (lung epithelial cell line from mink Mustela vison; ATCC number: CCL-64) were seeded in DMEM (Invitrogen) supplemented with 10% fetal bovine serum (Pan Biotech) at a defined cell density in 24-well or 96-well plates (24-well plate: 1.5×10^5 cells per well; 96-well plate: 4×10^4 cells per well). Cell cultures were incubated in DMEM at 37° C. and 10% CO2. On the next day, the medium was replaced and cells were serum-starved for 16-20 hours. The following day, serial dilutions of compounds were added to the wells, pre-incubated for 1.5 hrs before recombinant TGF-beta 1 ligand (final concentration 5 ng/ml; R&D systems) was added. After one hour of ligand stimulation, lysates were prepared and analyzed using an enzyme-linked immunosorbent assay kit (PathScan Phospho-Smad2 Kit, Cell Signaling Technologies). The ELISA detects phosphorylated Smad2 as well as phosphorylated Smad3 with the phospho-specific antibody. TGF-beta stimulated cells and unstimulated cells served as positive and negative controls (100% and background control). The concentration of the vehicle DMSO was kept constant at 0.2% (v/v) in all wells. Dose-response relationships were fitted using curve fitting algorithms of the RS1 statistics software package (Brooks Automation Inc. RS/1—Statistical Tools Handbook. Release 6.2) to determine the concentration at which half-maximal inhibition (IC50) of Smad2/3 phosphorylation was achieved.

[2] = GST-ALK5, GST-SMAD2 substrate, 3 mM ATP, 30° C., 45 min
[3] = Mv1-Lu cells, TGF-beta 1 5 ng/ml, phospho-Smad2/3 ELISA

SMILES | IC50 (GST-ALK5; [2]) [nM] | IC50 [1, 3] [nM] | other results
Cc1ccn(-c2cc(-c3cncc(Br)c3)c3cccnc3n2)n1 [4-(5-Bromo-pyridin-3-yl)-2-(3-methyl-pyrazol-1-yl)-[1,8]naphthyridine] |  |  | IC50 (GST-ALK5; Table 2, intermediate, GST-ALK5 flashplate assay): > 10000 nM; IC50 ([1]; Table 2, intermediate, Smad2/3 phosphorylation in Mv1-Lu cells): > 10000 nM
Fc1ccc(Cl)cc1-c1cc(-c2cncc3ccccc23)c2ccccc2n1 [compound 1, 2-(5-Chloro-2-fluoro-phenyl)-4-isoquinolin-4-yl-quinoline] | 1000 to 10000 | 1000 to 10000 | 
Fc1ccc(Cl)cc1-c1cc(-c2cncc3ccccc23)c2cccnc2n1 [compound 2, 2-(5-Chloro-2-fluoro-phenyl)-4-isoquinolin-4-yl-[1,8]naphthyridine] | 100 to 1000 | 1000 to 10000 | 
Cc1cccc(-c2cc(-c3cncc4ccccc34)c3cccnc3n2)n1 [compound 3, 4-Isoquinolin-4-yl-2-(6-methyl-pyridin-2-yl)-[1,8]naphthyridine] | 1000 to 10000 | > 10000 | 
Fc1ccc(Cl)cc1-c1cc(-c2cncc(-c3ccccc3)c2)c2cccnc2n1 [compound 4, 2-(5-Chloro-2-fluoro-phenyl)-4-(5-phenyl-pyridin-3-yl)-[1,8]naphthyridine] | 100 to 1000 | 100 to 1000 | 
Cc1cccc(-c2cc(-c3cncc(-c4ccccc4)c3)c3cccnc3n2)n1 [compound 5, 2-(6-Methyl-pyridin-2-yl)-4-(5-phenyl-pyridin-3-yl)-[1,8]naphthyridine] | 100 to 1000 | 1000 to 10000 | 
Fc1ccc(Cl)cc1-c1cc(-c2cncc(-c3ccccc3)c2)c2ccccc2n1 [compound 6, 2-(5-Chloro-2-fluoro-phenyl)-4-(5-phenyl-pyridin-3-yl)-quinoline] | 1000 to 10000 | > 10000 | 
Cn1cc(-c2cncc(-c3cc(-c4cc(Cl)ccc4F)nc4ncccc34)c2)cn1 [compound 7, 2-(5-chloro-2-fluoro-phenyl)-4-[5-(1-methyl-1H-pyrazol-4-yl)-pyridin-3-yl]-[1,8]naphthyridine] | < 100 | 100 to 1000 | 
Cn1cc(-c2cncc(-c3cc(-c4cc(C(F)(F)F)ccc4F)nc4ncccc34)c2)cn1 [compound 8, 2-(2-Fluoro-5-trifluoromethyl-phenyl)-4-[5-(1-methyl-1H-pyrazol-4-yl)-pyridin-3-yl]-[1,8]naphthyridine] | < 100 | 100 to 1000 | 
Cn1cc(-c2cncc(-c3cc(-c4cccc(Cl)c4)nc4ncccc34)c2)cn1 [compound 9, 2-(3-Chloro-phenyl)-4-[5-(1-methyl-1H-pyrazol-4-yl)-pyridin-3-yl]-[1,8]naphthyridine] | 100 to 1000 | 1000 to 10000 | 
Cc1cccc(-c2cc(-c3cncc(-c4cnn(C)c4)c3)c3cccnc3n2)n1 [compound 10, 4-[5-(1-Methyl-1H-pyrazol-4-yl)-pyridin-3-yl]-2-(6-methyl-pyridin-2-yl)-[1,8]naphthyridine] | 100 to 1000 | 1000 to 10000 | 
Fc1ccc(Cl)cc1-c1cc(-c2cncc(-c3cnn(C4CCNCC4)c3)c2)c2cccnc2n1 [compound 11, 2-(5-chloro-2-fluoro-phenyl)-4-[5-(1-piperidin-4-yl-1H-pyrazol-4-yl)-pyridin-3-yl]-[1,8]naphthyridine dihydrochloride] | < 100 |  | IC50 [1]: < 100 nM
Fc1ccc(Cl)cc1-c1cc(-c2cccc(-c3ccccc3)n2)c2cccnc2n1 [compound 12, 2-(5-Chloro-2-fluoro-phenyl)-4-(6-phenyl-pyridin-2-yl)-[1,8]naphthyridine] | > 10000 | > 10000 | 
Nc1ncc(-c2cnn(C3CCNCC3)c2)cc1-c1cc(-c2cc(Cl)ccc2F)nc2ncccc12 [compound 13, 3-[2-(5-Chloro-2-fluoro-phenyl)-[1,8]naphthyridin-4-yl]-5-(1-piperidin-4-yl-1H-pyrazol-4-yl)-pyridin-2-ylamine dihydrochloride] | < 100 |  | IC50 [1]: < 100 nM
Cn1cc(-c2cncc(-c3cc(-c4cccc(C(F)(F)F)c4)nc4ncccc34)c2)cn1 [compound 14, 4-[5-(1-Methyl-1H-pyrazol-4-yl)-pyridin-3-yl]-2-(3-trifluoromethyl-phenyl)-[1,8]naphthyridine] | 100 to 1000 | 1000 to 10000 | 
Cn1cc(-c2cncc(-c3cc(-c4ccccc4F)nc4ncccc34)c2)cn1 [compound 15, 2-(2-Fluoro-phenyl)-4-[5-(1-methyl-1H-pyrazol-4-yl)-pyridin-3-yl]-[1,8]naphthyridine] | < 100 | 100 to 1000 | 
Cn1cc(-c2cncc(-c3cc(-c4ccc(F)cc4)nc4ncccc34)c2)cn1 [compound 16, 2-(4-Fluoro-phenyl)-4-[5-(1-methyl-1H-pyrazol-4-yl)-pyridin-3-yl]-[1,8]naphthyridine] | 100 to 1000 | 1000 to 10000 | 
Cn1cc(-c2cncc(-c3cc(-c4cc(F)c(F)cc4F)nc4ncccc34)c2)cn1 [compound 17, 4-[5-(1-Methyl-1H-pyrazol-4-yl)-pyridin-3-yl]-2-(2,4,5-trifluoro-phenyl)-[1,8]naphthyridine] | 100 to 1000 | 1000 to 10000 | 
Fc1ccc(C(F)(F)F)cc1-c1cc(-c2cncc(-c3cnn(C4CCNCC4)c3)c2)c2cccnc2n1 [compound 18, 2-(2-Fluoro-5-trifluoromethyl-phenyl)-4-[5-(1-piperidin-4-yl-1H-pyrazol-4-yl)-pyridin-3-yl]-[1,8]naphthyridine dihydrochloride] | < 100 |  | IC50 [1]: < 100 nM
OCCn1cc(-c2cncc(-c3cc(-c4ccccc4F)nc4ncccc34)c2)cn1 [compound 40, 2-(4-{5-[2-(2-fluoro-phenyl)-[1,8]naphthyridin-4-yl]-pyridin-3-yl}-pyrazol-1-yl)-ethanol] |  | 100 to 1000 | 
Fc1ccccc1-c1cc(-c2cncc(-c3cnn(CCN4CCOCC4)c3)c2)c2cccnc2n1 [compound 41, 2-(2-Fluoro-phenyl)-4-{5-[1-(2-morpholin-4-yl-ethyl)-1H-pyrazol-4-yl]-pyridin-3-yl}-[1,8]naphthyridine] |  | 100 to 1000 | 
Fc1ccc(Cl)cc1-c1cc(-c2cncc(-c3cn(CCN4CCOCC4)nn3)c2)c2cccnc2n1 [compound 42, 2-(5-chloro-2-fluoro-phenyl)-4-{5-[1-(2-morpholin-4-yl-ethyl)-1H-[1,2,3]triazol-4-yl]-pyridin-3-yl}-[1,8]naphthyridine] |  | 100 to 1000 | 
CN1CCC(c2nc(-c3cncc(-c4cc(-c5ccccc5F)nc5ncccc45)c3)no2)CC1 [compound 60, 2-(2-fluoro-phenyl)-4-{5-[5-(1-methyl-piperidin-4-yl)-[1,2,4]oxadiazol-3-yl]-pyridin-3-yl}-[1,8]naphthyridine] | 100 to 1000 |  | 
Cn1ccc(-c2cncc(-c3cc(-c4ccccc4F)nc4ncccc34)c2)n1 [compound 66, 2-(2-Fluoro-phenyl)-4-[5-(1-methyl-1H-pyrazol-3-yl)-pyridin-3-yl]-[1,8]naphthyridine] |  | 1000 to 10000 | 
Cn1nccc1-c1cncc(-c2cc(-c3ccccc3F)nc3ncccc23)c1 [compound 67, 2-(2-Fluoro-phenyl)-4-[5-(2-methyl-2H-pyrazol-3-yl)-pyridin-3-yl]-[1,8]naphthyridine] |  | 1000 to 10000 | 
CN1CCN(c2ccnc(-c3cncc(-c4cc(-c5ccccc5F)nc5ncccc45)c3)n2)CC1 [compound 70, 2-(2-fluoro-phenyl)-4-{5-[4-(4-methyl-piperazin-1-yl)-pyrimidin-2-yl]-pyridin-3-yl}-[1,8]naphthyridine] | 100 to 1000 |  | 

Source: patent US8912216B2, “Hetaryl-[1,8]naphthyridine derivatives” (Merck Patent GmbH, priority 2010, dated 2014)
